This is an account of results in patent US20050026982A1, “Composition that consists of alkanedicarboxylic acids and a pharmaceutical active ingredient” (priority 2003, published 2005).

This assay relates to croton-oil-inflamed mouse skin. The experiment in a line: Croton oil-induced inflammation on the mouse ear (irritative contact dermatitis model), leukocyte infiltration of the skin. The format is in vivo. The following applies: metronidazole 0.75%; for Inhibition [%] of the Skin Infiltration of Granulocytes & Monocytes (Myelo-Peroxidase Activity) / Inhibition [%] of the Skin Infiltration of Neutrophilic (Elastase Activity): croton oil dissolving-out on mouse ear, inhibition vs croton oil + vehicle treatment, azelaic acid 20%, methylprednisolone 0.1%, ethanol/isopropyl myristat; for Therapeutic effect in the inflammation model in comparison to the vehicle (peroxidase and elastase activity in the skin): azelaic acid 20% in ethanol/isopropyl myristat. An excerpt:
The induction of an inflammatory reaction (irritative contact dermatitis) is a common model for pharmacological evaluation of the anti-inflammatory potential of topically or systemically administered test substances (Trancik and Lowe (1985) Evaluation of Topical Nonsteroidal Anti-Inflammatory Agents, Models in Dermatology, H. Maibach and N. J. Lowe. Basel, Karger: 35-42). It has proven effective, i.a., in the testing of non-steroidal antiphlogistic agents as well as in glucocorticoid steroids and is regarded as the most reproducible in-vivo test for the evaluation of topical anti-inflammatory substances (Lorenzetti (1975) Animal to Clinical Correlation of Topical Anti-Inflammatory Efficacy. Animal Models in Dermatology. H. Maibach. Basel Karger: 212-225).
The application of the phorbol ester croton oil to mouse ears results in an acute, inflammatory reaction with edema and immigration of primarily polymorphonuclear granulocytes that reaches its maximum within 24 hours. In this connection, test substances can be administered either preventively (i.e., before administration of the inflammatory stimuli) or simultaneously with croton oil. The croton oil-induced inflammation on the mouse ear is not only a model of irritative and/or allergic contact dermatitis, but also other skin diseases that are associated with a high inflammation and immigration of granulocytes. These include psoriasis, atopic dermatis, common acne and the inflammatory stage of rosacea.
Rosacea is a disease of unknown etiology that is considered by many authors to be in the acne group and is generated on the latter and can remove the latter over the course of time. The disease is divided into three stages, of which in particular Rosacea II and III are characterized by inflammatory nodules, nodes, and patches. A leukocytic infiltrate is found by histology (Braun-Falco et al. (1995) Dermatologie und Venerologie. Heidelberg, Springer). Because of the inflammatory components of these stages with leukocyte infiltration of the skin, the croton oil model reflects aspects of this disease.
The activity included, i.a., the immigrations of leukocytes, measured as peroxidase activity in the skin, as well as the immigration of neutrophilic granulocytes, measured as elastase activity in the skin (Table 1).

“Also recorded” adds a separate entry of the source. Marks after values point to notes of the source that are not given here.

For `C[C@H]1C[C@@H]2[C@H]([C@@H](O)C[C@@]3(C)[C@H]2CC[C@]3(O)C(=O)CO)[C@@]2(C)C=CC(=O)C=C12` [Methylprednisolone], the “Inhibition [%] of the Skin Infiltration of Granulocytes & Monocytes (Myelo-Peroxidase Activity)” value (“Inhibition [%] … (Myelo-Peroxidase Activity)” for short) was 90 (p < 0.05)* % and the “Inhibition [%] of the Skin Infiltration of Neutrophilic (Elastase Activity)” value (shortened to “Inhibition [%] … (Elastase Activity)”) was 95 (p < 0.05)* %.

As for `O=C(O)CCCCCCCC(=O)O` [Azelaic Acid, azelaic acid], the “Inhibition [%] … (Myelo-Peroxidase Activity)” value was 21 (n.s.)* %; the “Inhibition [%] … (Elastase Activity)” value is 11 (n.s.)* %; the “Therapeutic effect in the inflammation model in comparison to the vehicle (peroxidase and elastase activity in the skin)” value is recorded as “did not show such high, therapeutic effects; also recorded: do not show such high, therapeutic effects”.

Take `Cc1ncc([N+](=O)[O-])n1CCO` [Metroidazole, 1-(2-hydroxyethyl)-2-methyl-5-nitroimidazole]: the “Inhibition [%] … (Myelo-Peroxidase Activity)” value is 9 (n.s.)* %; the “Inhibition [%] … (Elastase Activity)” value was 18 (n.s.)* %; the “Therapeutic effect in the inflammation model in comparison to the vehicle (peroxidase and elastase activity in the skin)” value is given as “did not show such high, therapeutic effects; also recorded: do not show such high, therapeutic effects”.
